pIC50: −log10 of the molar value.
Target: LSD-1 enzyme (Homo sapiens (Human), UniProt O60341)
Test: LANCE LSD1/KDM1A demethylase assay (LSD1 histone demethylase biochemical assay)
Settings: 1 nM LSD-1 enzyme, 1 hour preincubation at 25° C., 0.4 μM Biotin-labeled Histone H3 peptide substrate
Experimental: LSD1 Histone Demethylase Biochemical Assay
LANCE LSD1/KDM1A demethylase assay-10 μL of 1 nM LSD-1 enzyme (ENZO BML-SE544-0050) in the assay buffer (50 mM Tris, pH 7.5, 0.01% Tween-20, 25 mM NaCl, 5 mM DTT) were preincubated for 1 hour at 25° C. with 0.8 μL compound/DMSO dotted in black 384 well polystyrene plates. […] Reactions were stopped by addition of 10 μL 1× LANCE Detection Buffer (PerkinElmer CR97-100) supplemented with 1.5 nM Eu-anti-unmodified H3K4 Antibody (PerkinElmer TRF0404), and 225 nM LANCE Ultra Streptavidin (PerkinElmer TRF102) along with 0.9 mM Tranylcypromine-HCl (Millipore 616431). After stopping the reactions plates were incubated for 30 minutes and read on a PHERAstar FS plate reader (BMG Labtech).

| SMILES | pIC50 |
| --- | --- |
| COc1ccc(-c2c(-c3ccc(C#N)cc3)cc(OC[C@@H]3CCCN(C)C3)c3cncn23)cn1 [Example 72, 4-(5-(6-methoxypyridin-3-yl)-8-{[(3R)-1-methylpiperidin-3-yl]methoxy}imidazo[1,5-a]pyridin-6-yl)benzonitrile] | ≥ 7.30 |
| CN1CCC[C@@H](COc2cc(-c3ccc(C#N)cc3)c(-c3cc(F)c(CO)c(F)c3)n3cncc23)C1 [Example 73, (R)-4-(5-(3,5-difluoro-4-(hydroxymethyl)phenyl)-8-((1-methylpiperidin-3-yl)methoxy)imidazo[1,5-a]pyridin-6-yl)benzonitrile] | ≥ 7.30 |
| Cc1cc(-c2c(-c3ccc(C#N)cc3)cc(OC[C@@H]3CCCN(C)C3)c3cncn23)cc(F)c1CO [Example 75, 4-(5-[3-fluoro-4-(hydroxymethyl)-5-methylphenyl]-8-{[(3R)-1-methylpiperidin-3-yl]methoxy}imidazo[1,5-a]pyridin-6-yl)benzonitrile] | ≥ 7.30 |
| Cc1ncc(-c2c(-c3ccc(C#N)cc3)cc(OC[C@@H]3CCCN(C)C3)c3cncn23)cc1O [Example 76, 4-(5-(5-hydroxy-6-methylpyridin-3-yl)-8-{[(3R)-1-methylpiperidin-3-yl]methoxy}imidazo[1,5-a]pyridin-6-yl)benzonitrile] | ≥ 7.30 |
| CN1CCC[C@@H](COc2cc(-c3ccc(C#N)cc3)c(-c3ccc(C(C)(C)O)cc3)n3cncc23)C1 [Example 77, 4-(5-[4-(1-hydroxy-1-methylethyl)phenyl]-8-{[(3R)-1-methylpiperidin-3-yl]methoxy}imidazo[1,5-a]pyridin-6-yl)benzonitrile] | ≥ 7.30 |
| CN1CCC[C@@H](COc2cc(-c3ccc(C#N)cc3)c(-c3cnc(N4CCOCC4)c(F)c3)n3cncc23)C1 [Example 78, 4-(5-(5-fluoro-6-morpholin-4-ylpyridin-3-yl)-8-{[(3R)-1-methylpiperidin-3-yl]methoxy}imidazo[1,5-a]pyridin-6-yl)benzonitrile] | ≥ 7.30 |
| Cc1cc(-c2c(-c3ccc(C#N)cc3)cc(OC[C@@H]3CCCN(C)C3)c3cncn23)ccc1CO [Example 79, 4-(5-[4-(hydroxymethyl)-3-methylphenyl]-8-{[(3R)-1-methylpiperidin-3-yl]methoxy}imidazo[1,5-a]pyridin-6-yl)benzonitrile] | ≥ 7.30 |
| CN1CCC[C@@H](COc2cc(-c3ccc(C#N)cc3)c(-c3ccc(N(C)C)nc3)n3cncc23)C1 [Example 80, 4-(5-[6-(dimethylamino)pyridin-3-yl]-8-{[(3R)-1-methylpiperidin-3-yl]methoxy}imidazo[1,5-a]pyridin-6-yl)benzonitrile] | ≥ 7.30 |
| Cc1cc(-c2c(-c3ccc(C#N)cc3)cc(OC[C@@H]3CCCN(C)C3)c3cncn23)cnc1C [Example 81, 4-(5-(5,6-dimethylpyridin-3-yl)-8-{[(3R)-1-methylpiperidin-3-yl]methoxy}imidazo[1,5-a]pyridin-6-yl)benzonitrile] | ≥ 7.30 |
| CN1CCC[C@@H](COc2cc(-c3ccc(C#N)cc3)c(-c3ccc(CN(C)C(=O)N(C)C)c(F)c3)n3cncc23)C1 [Example 82, N-[4-(6-(4-cyanophenyl)-8-{[(3R)-1-methylpiperidin-3-yl]methoxy}imidazo[1,5-a]pyridin-5-yl)-2-fluorobenzyl]-N,N′,N′-trimethylurea] | ≥ 7.30 |
| CN(C)C1CCN(c2nc(-c3ccc(C#N)cc3)c(-c3ccc4c(c3)ncn4C)n3cncc23)CC1 [Example 83, 4-[8-[4-(dimethylamino)piperidin-1-yl]-5-(1-methyl-1H-benzimidazol-5-yl)imidazo[1,5-a]pyrazin-6-yl]benzonitrile] | ≥ 7.30 |
| CN(C)C1CCN(c2nc(-c3ccc(C#N)cc3)c(-c3cnc4c(ccn4C)c3)n3cncc23)CC1 [Example 84, 4-(8-(4-(dimethylamino)piperidin-1-yl)-5-(1-methyl-1H-pyrrolo[2,3-b]pyridin-5-yl)imidazo[1,5-a]pyrazin-6-yl)benzonitrile] | ≥ 7.30 |
| CN1CCC[C@@H](COc2nc(-c3ccc(C#N)cc3)c(-c3cnc4c(ccn4C)c3)n3cncc23)C1 [Example 85, 4-[8-{[(3R)-1-methylpiperidin-3-yl]methoxy}-5-(1-methyl-1H-pyrrolo[2,3-b]pyridin-5-yl)imidazo[1,5-a]pyrazin-6-yl]benzonitrile] | ≥ 7.30 |
| Cc1cc(-c2c(-c3ccc(C#N)cc3)nc(OC[C@@H]3CCCN(C)C3)c3cncn23)cnc1C [Example 86, 4-(5-(5,6-dimethylpyridin-3-yl)-8-{[(3R)-1-methylpiperidin-3-yl]methoxy}imidazo[1,5-a]pyrazin-6-yl)benzonitrile] | ≥ 7.30 |
| COC(=O)N(C)c1ccc(-c2c(-c3ccc(C#N)cc3)nc(OC[C@@H]3CCCN(C)C3)c3cncn23)cc1F [Example 87, (R)-methyl (4-(6-(4-cyanophenyl)-8-((1-methylpiperidin-3-yl)methoxy)imidazo[1,5-a]pyrazin-5-yl)-2-fluorophenyl)(methyl)carbamate] | ≥ 7.30 |
| Cc1cc(-c2c(-c3ccc(C#N)cc3)nc(N3CCC(N(C)C)CC3)c3cncn23)cnc1C [Example 89, 4-[8-[4-(dimethylamino)piperidin-1-yl]-5-(5,6-dimethylpyridin-3-yl)imidazo[1,5-a]pyrazin-6-yl]benzonitrile] | ≥ 7.30 |
| COc1ncc(-c2c(-c3ccc(C#N)cc3)nc(N3CCC(N(C)C)CC3)c3cncn23)cc1F [Example 90, 4-[8-[4-(dimethylamino)piperidin-1-yl]-5-(5-fluoro-6-methoxypyridin-3-yl)imidazo[1,5-a]pyrazin-6-yl]benzonitrile] | ≥ 7.30 |
| Cc1ccc(-c2c(-c3ccc(C#N)cc3)nc(N3CCC(N(C)C)CC3)c3cncn23)cc1CO [Example 91, 4-{8-[4-(dimethylamino)piperidin-1-yl]-5-[3-(hydroxymethyl)-4-methylphenyl]imidazo[1,5-a]pyrazin-6-yl}benzonitrile] | ≥ 7.30 |
| Cc1ccc(-c2c(-c3ccc(C#N)cc3)nc(N3CCC(N(C)C)CC3)c3cncn23)c(CO)c1 [Example 92, 4-{8-[4-(dimethylamino)piperidin-1-yl]-5-[2-(hydroxymethyl)-4-methylphenyl]imidazo[1,5-a]pyrazin-6-yl}benzonitrile] | ≥ 7.30 |
| COc1ncc(-c2c(-c3ccc(C#N)cc3)nc(N3CCC(N(C)C)CC3)c3cncn23)cc1C [Example 93, 4-[8-[4-(dimethylamino)piperidin-1-yl]-5-(6-methoxy-5-methylpyridin-3-yl)imidazo[1,5-a]pyrazin-6-yl]benzonitrile] | ≥ 7.30 |
| COC(=O)N(C)c1ccc(-c2c(-c3ccc(C#N)cc3)nc(N3CCC(N(C)C)CC3)c3cncn23)cc1 [Example 95, methyl (4-(6-(4-cyanophenyl)-8-(4-(dimethylamino)piperidin-1-yl)imidazo[1,5-a]pyrazin-5-yl)phenyl)(methyl)carbamate] | ≥ 7.30 |
| Cc1ncc(-c2c(-c3ccc(C#N)cc3)nc(N3CCC(N(C)C)CC3)c3cncn23)cc1F [Example 97, 4-[8-[4-(dimethylamino)piperidin-1-yl]-5-(5-fluoro-6-methylpyridin-3-yl)imidazo[1,5-a]pyrazin-6-yl]benzonitrile] | ≥ 7.30 |
| CN(C)C1CCN(c2nc(-c3ccc(C#N)cc3)c(-c3ccc(OC(F)F)nc3)n3cncc23)CC1 [Example 98, 4-{5-[6-(difluoromethoxy)pyridin-3-yl]-8-[4-(dimethylamino)piperidin-1-yl]imidazo[1,5-a]pyrazin-6-yl}benzonitrile] | ≥ 7.30 |
| CCOc1ccc(-c2c(-c3ccc(C#N)cc3)nc(N3CCC(N(C)C)CC3)c3cncn23)cn1 [Example 99, 4-[8-[4-(dimethylamino)piperidin-1-yl]-5-(6-ethoxypyridin-3-yl)imidazo[1,5-a]pyrazin-6-yl]benzonitrile] | ≥ 7.30 |
| CN(C)C1CCN(c2nc(-c3ccc(C#N)cc3)c(-c3ccc4c(cnn4C)c3)n3cncc23)CC1 [Example 100, 4-[8-[4-(dimethylamino)piperidin-1-yl]-5-(1-methyl-1H-indazol-5-yl)imidazo[1,5-a]pyrazin-6-yl]benzonitrile] | ≥ 7.30 |
| CN1CCC[C@@H](COc2nc(-c3ccc(C#N)cc3)c(-c3ccc4c(c3)CC(O)C4)n3cncc23)C1 (stereo partly drawn) [Example 101, 4-(5-(2-hydroxy-2,3-dihydro-1H-inden-5-yl)-8-{[(3R)-1-methylpiperidin-3-yl]methoxy}imidazo[1,5-a]pyrazin-6-yl)benzonitrile] | ≥ 7.30 |
| CN1CCC[C@@H](COc2nc(-c3ccc(C#N)c(F)c3)c(-c3ccc4c(c3)CCC(=O)N4C)n3cncc23)C1 [Example 102, 2-fluoro-4-(5-(1-methyl-2-oxo-1,2,3,4-tetrahydroquinolin-6-yl)-8-{[(3R)-1-methylpiperidin-3-yl]methoxy}imidazo[1,5-a]pyrazin-6-yl)benzonitrile] | ≥ 7.30 |
| CN(C)C1CCN(c2nc(-c3ccc(C#N)cc3)c(-c3ccc4nccnc4c3)n3cncc23)CC1 [Example 103, 4-(8-(4-(dimethylamino)piperidin-1-yl)-5-(quinoxalin-6-yl)imidazo[1,5-a]pyrazin-6-yl)benzonitrile] | ≥ 7.30 |
| CN1C(=O)COc2cc(-c3c(-c4ccc(C#N)cc4)nc(N4CCC(N(C)C)CC4)c4cncn34)cnc21 [Example 105, 4-[8-[4-(dimethylamino)piperidin-1-yl]-5-(4-methyl-3-oxo-3,4-dihydro-2H-pyrido[3,2-b][1,4]oxazin-7-yl)imidazo[1,5-a]pyrazin-6-yl]benzonitrile] | ≥ 7.30 |

— patent US10047086B2, “Imidazopyridines and imidazopyrazines as LSD1 inhibitors” (Incyte Corporation, priority 2014, dated 2018)
